From ChEMBL document CHEMBL4017504, “Blockade of Asparagine Endopeptidase Inhibits Cancer Metastasis” (J Med Chem, 2017)
Blank lines part the entries; values can stand above or below the compound they belong to. Activity calls are given as the source filed them. The rule behind the calls is not given here.

Tests used:
Legumain (Homo sapiens) = molecular target: T1, Legumain (Homo sapiens) (UniProt Q99538); assay: Inhibition of AEP (unknown origin) assessed as residual activity at 1 uM using Cbz-Ala-Ala-Asn-AMC as substrate after 15 mins by fluorescence assay relative to control
T1 sequence (whole entry): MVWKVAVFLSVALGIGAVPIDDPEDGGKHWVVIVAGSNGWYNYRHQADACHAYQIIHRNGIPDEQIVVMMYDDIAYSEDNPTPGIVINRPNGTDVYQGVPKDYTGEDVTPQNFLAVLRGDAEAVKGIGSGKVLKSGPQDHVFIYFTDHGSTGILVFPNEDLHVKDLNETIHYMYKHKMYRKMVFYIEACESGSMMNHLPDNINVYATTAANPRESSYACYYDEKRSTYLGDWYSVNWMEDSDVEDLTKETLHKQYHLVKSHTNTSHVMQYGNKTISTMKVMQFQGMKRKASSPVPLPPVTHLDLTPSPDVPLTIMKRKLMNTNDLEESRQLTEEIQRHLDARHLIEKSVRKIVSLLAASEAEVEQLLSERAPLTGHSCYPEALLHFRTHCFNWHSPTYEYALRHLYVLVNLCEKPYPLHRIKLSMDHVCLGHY

MDA-MB-435 [1] = assay: Cytotoxicity against human MDA-MB-435 cells assessed as reduction in cell viability up to 2 uM by MTT assay; format: cell-based
MDA-MB-231 [2] = assay: Antitumor activity against human MDA-MB-231 cells xenografted in nude mouse assessed as metastatic nodules on lungs at 3 mg/kg, po via gavage for 42 consecutive days by hematoxylin and eosin staining based microscopic method relative to control; format: functional
Caspase-3 = molecular target: T2, Caspase-3 (Homo sapiens, UniProt P42574); assay: Inhibition of caspase-3 (unknown origin)
T2 sequence (P42574 whole entry): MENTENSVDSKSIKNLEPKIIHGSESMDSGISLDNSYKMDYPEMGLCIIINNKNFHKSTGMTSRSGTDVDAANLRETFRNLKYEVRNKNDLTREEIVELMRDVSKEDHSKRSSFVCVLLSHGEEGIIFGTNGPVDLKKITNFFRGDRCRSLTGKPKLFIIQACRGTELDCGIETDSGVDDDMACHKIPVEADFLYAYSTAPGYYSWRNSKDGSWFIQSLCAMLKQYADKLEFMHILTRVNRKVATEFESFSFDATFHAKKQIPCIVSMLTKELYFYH

MDA-MB-231 [3] = assay: Antitumor activity against human MDA-MB-231 cells xenografted in nude mouse assessed as reduction in mammary tumor weight at 3 to 10 mg/kg, po via gavage for 42 consecutive days; format: functional, organism-based
MDA-MB-231 [4] = assay: Anti-invasive activity against human MDA-MB-231 cells at 2 uM by crystal violet staining based microscopic method relative to control; format: functional
MDA-MB-435 [5] = assay: Anti-invasive activity against human MDA-MB-435 cells at 2 uM by crystal violet staining based microscopic method relative to control; format: functional
Mus musculus [6] = assay: Toxicity in nude mouse xenografted with human MDA-MB-231 cells assessed as abnormality in kidney at 3 to 10 mg/kg, po via gavage for 42 consecutive days by hematoxylin and eosin staining based microscopic method; format: organism-based; conditions: in vivo
Caspase-8 = Caspase-8 (Homo sapiens, UniProt Q14790); assay: Inhibition of caspase-8 (unknown origin)
MDA-MB-231 [7] = assay: Antitumor activity against human MDA-MB-231 cells xenografted in nude mouse assessed as metastatic nodules on lungs at 10 mg/kg, po via gavage for 42 consecutive days by hematoxylin and eosin staining based microscopic method relative to control; format: functional
MDA-MB-435 [8] = assay: Anti-invasive activity against human MDA-MB-435 cells harboring AEP siRNA up to 2 uM by crystal violet staining based microscopic method; format: functional, cell-based
MDA-MB-231 [9] = assay: Inhibition of MMP2 cleavage in human MDA-MB-231 cells harboring AEP siRNA up to 10 uM by gelatin zymography assay; format: functional, cell-based
Cathepsin S = Cathepsin S (Homo sapiens, UniProt P25774); assay: Inhibition of cathepsin-S (unknown origin)
MDA-MB-231 [10] = assay: Anti-migratory activity against human MDA-MB-231 cells up to 2 uM by transwell assay relative to control; format: functional
Mus musculus [11] = assay: Reduction in ratio of cleaved MMP2 to full-length MMP2 in mammary tumor of nude mouse xenografted with human MDA-MB-231 cells at 3 to 10 mg/kg, po via gavage for 42 consecutive days by gelatin zymography assay; format: functional, organism-based
MDA-MB-231 [12] = assay: Cytotoxicity against human MDA-MB-231 cells assessed as reduction in cell viability up to 10 uM by MTT assay; format: cell-based
Mus musculus [13] = assay: Toxicity in nude mouse xenografted with human MDA-MB-231 cells assessed as increase in spleen size at 3 to 10 mg/kg, po via gavage for 42 consecutive days; format: organism-based; conditions: in vivo
Mus musculus [14] = assay: Toxicity in nude mouse xenografted with human MDA-MB-231 cells assessed as effect on blood count at 3 to 10 mg/kg, po via gavage for 42 consecutive days by hematoxylin and eosin staining based microscopic method; format: organism-based; conditions: in vivo
MDA-MB-231 [15] = assay: Anti-invasive activity against human MDA-MB-231 cells by crystal violet staining based microscopic method; format: functional, cell-based
Mus musculus [16] = assay: Toxicity in nude mouse xenografted with human MDA-MB-231 cells assessed as body weight loss at 3 to 10 mg/kg, po via gavage for 42 consecutive days; format: organism-based; conditions: in vivo
Mus musculus [17] = assay: Toxicity in nude mouse xenografted with human MDA-MB-231 cells assessed as abnormality in liver at 3 to 10 mg/kg, po via gavage for 42 consecutive days by hematoxylin and eosin staining based microscopic method; format: organism-based; conditions: in vivo
[18] = Inhibition of cathepsin-L (unknown origin); set-up: species or system Homo sapiens
MDA-MB-435 [19] = assay: Anti-migratory activity against human MDA-MB-435 cells up to 2 uM by transwell assay relative to control; format: functional
MDA-MB-231 [20] = assay: Anti-invasive activity against human MDA-MB-231 cells harboring AEP siRNA up to 2 uM by crystal violet staining based microscopic method; format: functional, cell-based
MDA-MB-231 [21] = assay: Cytotoxicity against human MDA-MB-231 cells assessed as reduction in cell viability up to 2 uM by MTT assay; format: cell-based
Mus musculus [22] = assay: Toxicity in nude mouse xenografted with human MDA-MB-231 cells assessed as abnormality in bone marrow at 3 to 10 mg/kg, po via gavage for 42 consecutive days by hematoxylin and eosin staining based microscopic method; format: organism-based; conditions: in vivo
MDA-MB-435 [23] = assay: Anti-invasive activity against human MDA-MB-435 cells by crystal violet staining based microscopic method; format: functional, cell-based
Legumain (Mus musculus) = molecular target: T3, Legumain (Mus musculus) (UniProt O89017); assay: Inhibition of AEP in mouse kidney by HTS assay
T3 sequence (whole entry): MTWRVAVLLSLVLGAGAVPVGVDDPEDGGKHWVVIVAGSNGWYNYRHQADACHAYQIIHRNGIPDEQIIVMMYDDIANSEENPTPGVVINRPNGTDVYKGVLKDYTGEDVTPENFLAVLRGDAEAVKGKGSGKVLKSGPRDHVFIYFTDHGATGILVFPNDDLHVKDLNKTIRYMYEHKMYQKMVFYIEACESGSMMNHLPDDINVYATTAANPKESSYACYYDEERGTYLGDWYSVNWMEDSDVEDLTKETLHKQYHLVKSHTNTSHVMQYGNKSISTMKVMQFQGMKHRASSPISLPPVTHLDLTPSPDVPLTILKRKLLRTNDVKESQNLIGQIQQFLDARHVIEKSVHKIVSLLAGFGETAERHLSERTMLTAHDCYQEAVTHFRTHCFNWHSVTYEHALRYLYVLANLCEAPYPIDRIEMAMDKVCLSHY

[24] = Apparent permeability across basolateral to apical side in human Caco2 cells after 2 hrs by LC-MS/MS method; format: ADME, cell-based; conditions: caco-2, 2 h
[25] = Apparent permeability across apical to basolateral side in human Caco2 cells after 2 hrs by LC-MS/MS method; format: ADME, cell-based; conditions: caco-2, 2 h
Legumain [26] = molecular target: T4, Legumain (Homo sapiens, UniProt Q99538); assay: Competitive inhibition of AEP (unknown origin) using varying levels of Z-AAN-AMC substrate after 10 mins by Lineweaver-Burk plot analysis
T4 sequence (Q99538 whole entry): T1 sequence (whole entry)

Homo sapiens = organism: Homo sapiens; assay: Selectivity ratio of IC50 for cathepsin-L (unknown origin) to IC50 for AEP (unknown origin)
Legumain [27] = molecular target: T4, Legumain; assay: Inhibition of AEP (unknown origin) using Cbz-Ala-Ala-Asn-AMC as substrate after 15 mins by fluorescence assay

Chain of Caspase-8 (Q14790 217-374 limits assumed): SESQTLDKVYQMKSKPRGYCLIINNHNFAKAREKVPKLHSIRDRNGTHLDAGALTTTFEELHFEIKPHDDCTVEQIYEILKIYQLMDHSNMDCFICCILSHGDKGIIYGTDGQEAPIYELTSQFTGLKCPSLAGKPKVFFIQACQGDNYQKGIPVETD
Chain of Caspase-8 (Q14790 385-479 limits assumed): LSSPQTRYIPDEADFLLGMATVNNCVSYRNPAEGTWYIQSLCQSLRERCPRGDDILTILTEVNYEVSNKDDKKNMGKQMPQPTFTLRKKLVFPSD
Chain of Cathepsin S (P25774 whole entry): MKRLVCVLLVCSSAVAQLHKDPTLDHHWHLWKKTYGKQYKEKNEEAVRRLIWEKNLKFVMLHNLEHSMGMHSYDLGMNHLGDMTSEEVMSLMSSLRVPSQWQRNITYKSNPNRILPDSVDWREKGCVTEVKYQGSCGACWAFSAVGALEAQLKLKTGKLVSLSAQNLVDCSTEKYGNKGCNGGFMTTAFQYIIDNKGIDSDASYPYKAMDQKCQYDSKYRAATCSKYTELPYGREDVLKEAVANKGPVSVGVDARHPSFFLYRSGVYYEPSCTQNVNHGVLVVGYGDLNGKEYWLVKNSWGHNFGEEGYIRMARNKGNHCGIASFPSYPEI

Activity (Legumain (Homo sapiens)): 14.1%
SMILES: CC[C@H](C)n1c(S)nc2c1c(=O)[nH]c(=O)n2C

Activity (Legumain (Homo sapiens)): 70.5%
SMILES: CSc1nc2c(c(=O)n(C)c(=O)n2C)n1C

IC50 (Caspase-3): > 200 µM
IC50 (Caspase-8): > 200 µM
IC50 (Cathepsin S): > 200 µM
IC50 [18]: 162 µM
SMILES: CCn1c(=O)c2c(nc(S)n2C)n(C)c1=O
Activity (MDA-MB-435 [1]): Non-Toxic
Activity (MDA-MB-231 [2]): 33%
Activity (MDA-MB-231 [3]): Active
inhibition at 2 µM (MDA-MB-231 [4]): 75%
inhibition at 2 µM (MDA-MB-435 [5]): 75%
Activity (Mus musculus [6]): Non-Toxic
Activity (MDA-MB-231 [7]): 17%
Activity (MDA-MB-435 [8]): inactive
inhibition (MDA-MB-231 [9]): inactive
inhibition (INH) (MDA-MB-231 [10]): 25%
Activity (Mus musculus [11]): Active
Activity (MDA-MB-231 [12]): Non-Toxic
Activity (Mus musculus [13]): Toxic
Activity (Mus musculus [14]): Non-Toxic
Activity (MDA-MB-231 [15]): Dose-dependent effect
Activity (Mus musculus [16]): Non-Toxic
Activity (Mus musculus [17]): Non-Toxic
inhibition (INH) (MDA-MB-435 [19]): 40%
Activity (MDA-MB-231 [20]): inactive
Activity (MDA-MB-231 [21]): Non-Toxic
Activity (Mus musculus [22]): Non-Toxic
Activity (MDA-MB-435 [23]): Dose-dependent effect

Activity (Legumain (Homo sapiens)): 69.4%
SMILES: CC(=O)Cn1c(S)nc2c1c(=O)[nH]c(=O)n2C

Activity (Legumain (Homo sapiens)): 18.1%
SMILES: C=CCn1c(S)nc2c1c(=O)n(C)c(=O)n2C

Activity (Legumain (Homo sapiens)): 17.2%
SMILES: Cn1c(=O)n(Cc2ccccc2)c(=O)c2c1nc(S)n2Cc1ccccc1

Activity (Legumain (Homo sapiens)): 18.5%
SMILES: COc1ccc(OC[C@@H](O)Cn2c(S)nc3c2c(=O)[nH]c(=O)n3C)cc1

Activity (Legumain (Homo sapiens)): 11.5%
SMILES: Cn1c(S)nc2c1c(=O)[nH]c(=O)n2C

Activity (Legumain (Homo sapiens)): 14.9%
SMILES: CCCn1c(S)nc2c1c(=O)[nH]c(=O)n2C

Activity (Legumain (Homo sapiens)): 17.2%
SMILES: Cc1ccc(Cn2c(S)nc3c2c(=O)n(C)c(=O)n3C)cc1

Activity (Legumain (Homo sapiens)): 85.4%
SMILES: Cn1c(=O)[nH]c(=O)c2c1nc(S)n2C[C@H](O)CO

IC50 (Caspase-3): > 200 µM
IC50 (Caspase-8): > 200 µM
IC50 (Cathepsin S): > 200 µM
IC50 [18]: > 200 µM
SMILES: Cn1c(S)nc2c1c(=O)n(Cc1ccccc1)c(=O)n2C

Activity (Legumain (Homo sapiens)): 98.9%
SMILES: Cn1c(=O)c2c(nc(S(=O)(=O)c3ccccc3)n2C)n(C)c1=O

Activity (Legumain (Homo sapiens)): 13.8%
SMILES: CCn1c(S)nc2c1c(=O)[nH]c(=O)n2C

Activity (Legumain (Homo sapiens)): 17.8%
SMILES: CC(C)n1c(S)nc2c1c(=O)n(C)c(=O)n2C

Activity (Legumain (Homo sapiens)): 15.7%
SMILES: CC(C)Cn1c(S)nc2c1c(=O)[nH]c(=O)n2C

Activity (Legumain (Homo sapiens)): 12.3%
SMILES: Cc1ccc(Cn2c(S)nc3c2c(=O)[nH]c(=O)n3C)cc1

Activity (Legumain (Homo sapiens)): 98.3%
SMILES: Cn1c(=O)c2c(nc(S(C)(=O)=O)n2C)n(C)c1=O

inhibition (Legumain (Mus musculus)): Active
Papp [24]: 20.3 ×10⁻⁶ cm/s
Papp [25]: 1.1 ×10⁻⁶ cm/s
IC50 (Cathepsin S): > 200 µM
IC50 [18]: > 200 µM
Ki (Legumain [26]): 0.105 µM
SMILES: Cn1c(=O)[nH]c(=O)c2c1nc(S)n2CC(O)COc1ccc(Cl)cc1 (stereo unspecified)

Activity (Legumain (Homo sapiens)): 14.8%
SMILES: CCCCn1c(S)nc2c1c(=O)[nH]c(=O)n2C

IC50 (Caspase-3): 185 µM
IC50 (Caspase-8): > 200 µM
Ratio IC50 (Homo sapiens): 500
IC50 (Cathepsin S): > 200 µM
IC50 [18]: 80.5 µM
IC50 (Legumain [27]): 0.18 µM
Activity (Legumain (Homo sapiens)): 16.1%
SMILES: Cn1c(=O)c2c(nc(S)n2C)n(C)c1=O

Activity (Legumain (Homo sapiens)): 13.8%
SMILES: COCCn1c(S)nc2c1c(=O)[nH]c(=O)n2C

Activity (Legumain (Homo sapiens)): 15.9%
SMILES: CCn1c(S)nc2c1c(=O)n(C)c(=O)n2C

Activity (Legumain (Homo sapiens)): 100%
SMILES: Cn1ccnc1Sc1nc2c(c(=O)n(C)c(=O)n2C)n1C

Activity (Legumain (Homo sapiens)): 74.3%
SMILES: Cn1c(=O)c2c(ncn2C)n(C)c1=O

Activity (Legumain (Homo sapiens)): 91.9%
SMILES: Cc1ncc2c(=O)[nH]c(=O)n(C)c2n1

Activity (Legumain (Homo sapiens)): 34.6%
SMILES: Cn1c(=O)[nH]c(=O)c2c1nc(S)n2C[C@H](O)COc1ccccc1
